Read-outs that look alike come from different tables or passages of the source.
How the values were obtained:
[1] = test system: rats and mice; conditions: transient ischemia with reperfusion and permanent occlusion; cited from earlier work
[2] = target: T1, type 2 IP3R from nuclei of HepG2 cells (Homo sapiens, UniProt Q14571); assay: Planar lipid bilayer single channel recording of native type 2 IP3R; type: biochemical
T1 construct: biophysical properties of native type 2 IP3R isolated from cells; endogenous in cells; host or cells: HepG2 cells, nuclei / nuclear envelope membranes
T1 sequence (Q14571 whole entry): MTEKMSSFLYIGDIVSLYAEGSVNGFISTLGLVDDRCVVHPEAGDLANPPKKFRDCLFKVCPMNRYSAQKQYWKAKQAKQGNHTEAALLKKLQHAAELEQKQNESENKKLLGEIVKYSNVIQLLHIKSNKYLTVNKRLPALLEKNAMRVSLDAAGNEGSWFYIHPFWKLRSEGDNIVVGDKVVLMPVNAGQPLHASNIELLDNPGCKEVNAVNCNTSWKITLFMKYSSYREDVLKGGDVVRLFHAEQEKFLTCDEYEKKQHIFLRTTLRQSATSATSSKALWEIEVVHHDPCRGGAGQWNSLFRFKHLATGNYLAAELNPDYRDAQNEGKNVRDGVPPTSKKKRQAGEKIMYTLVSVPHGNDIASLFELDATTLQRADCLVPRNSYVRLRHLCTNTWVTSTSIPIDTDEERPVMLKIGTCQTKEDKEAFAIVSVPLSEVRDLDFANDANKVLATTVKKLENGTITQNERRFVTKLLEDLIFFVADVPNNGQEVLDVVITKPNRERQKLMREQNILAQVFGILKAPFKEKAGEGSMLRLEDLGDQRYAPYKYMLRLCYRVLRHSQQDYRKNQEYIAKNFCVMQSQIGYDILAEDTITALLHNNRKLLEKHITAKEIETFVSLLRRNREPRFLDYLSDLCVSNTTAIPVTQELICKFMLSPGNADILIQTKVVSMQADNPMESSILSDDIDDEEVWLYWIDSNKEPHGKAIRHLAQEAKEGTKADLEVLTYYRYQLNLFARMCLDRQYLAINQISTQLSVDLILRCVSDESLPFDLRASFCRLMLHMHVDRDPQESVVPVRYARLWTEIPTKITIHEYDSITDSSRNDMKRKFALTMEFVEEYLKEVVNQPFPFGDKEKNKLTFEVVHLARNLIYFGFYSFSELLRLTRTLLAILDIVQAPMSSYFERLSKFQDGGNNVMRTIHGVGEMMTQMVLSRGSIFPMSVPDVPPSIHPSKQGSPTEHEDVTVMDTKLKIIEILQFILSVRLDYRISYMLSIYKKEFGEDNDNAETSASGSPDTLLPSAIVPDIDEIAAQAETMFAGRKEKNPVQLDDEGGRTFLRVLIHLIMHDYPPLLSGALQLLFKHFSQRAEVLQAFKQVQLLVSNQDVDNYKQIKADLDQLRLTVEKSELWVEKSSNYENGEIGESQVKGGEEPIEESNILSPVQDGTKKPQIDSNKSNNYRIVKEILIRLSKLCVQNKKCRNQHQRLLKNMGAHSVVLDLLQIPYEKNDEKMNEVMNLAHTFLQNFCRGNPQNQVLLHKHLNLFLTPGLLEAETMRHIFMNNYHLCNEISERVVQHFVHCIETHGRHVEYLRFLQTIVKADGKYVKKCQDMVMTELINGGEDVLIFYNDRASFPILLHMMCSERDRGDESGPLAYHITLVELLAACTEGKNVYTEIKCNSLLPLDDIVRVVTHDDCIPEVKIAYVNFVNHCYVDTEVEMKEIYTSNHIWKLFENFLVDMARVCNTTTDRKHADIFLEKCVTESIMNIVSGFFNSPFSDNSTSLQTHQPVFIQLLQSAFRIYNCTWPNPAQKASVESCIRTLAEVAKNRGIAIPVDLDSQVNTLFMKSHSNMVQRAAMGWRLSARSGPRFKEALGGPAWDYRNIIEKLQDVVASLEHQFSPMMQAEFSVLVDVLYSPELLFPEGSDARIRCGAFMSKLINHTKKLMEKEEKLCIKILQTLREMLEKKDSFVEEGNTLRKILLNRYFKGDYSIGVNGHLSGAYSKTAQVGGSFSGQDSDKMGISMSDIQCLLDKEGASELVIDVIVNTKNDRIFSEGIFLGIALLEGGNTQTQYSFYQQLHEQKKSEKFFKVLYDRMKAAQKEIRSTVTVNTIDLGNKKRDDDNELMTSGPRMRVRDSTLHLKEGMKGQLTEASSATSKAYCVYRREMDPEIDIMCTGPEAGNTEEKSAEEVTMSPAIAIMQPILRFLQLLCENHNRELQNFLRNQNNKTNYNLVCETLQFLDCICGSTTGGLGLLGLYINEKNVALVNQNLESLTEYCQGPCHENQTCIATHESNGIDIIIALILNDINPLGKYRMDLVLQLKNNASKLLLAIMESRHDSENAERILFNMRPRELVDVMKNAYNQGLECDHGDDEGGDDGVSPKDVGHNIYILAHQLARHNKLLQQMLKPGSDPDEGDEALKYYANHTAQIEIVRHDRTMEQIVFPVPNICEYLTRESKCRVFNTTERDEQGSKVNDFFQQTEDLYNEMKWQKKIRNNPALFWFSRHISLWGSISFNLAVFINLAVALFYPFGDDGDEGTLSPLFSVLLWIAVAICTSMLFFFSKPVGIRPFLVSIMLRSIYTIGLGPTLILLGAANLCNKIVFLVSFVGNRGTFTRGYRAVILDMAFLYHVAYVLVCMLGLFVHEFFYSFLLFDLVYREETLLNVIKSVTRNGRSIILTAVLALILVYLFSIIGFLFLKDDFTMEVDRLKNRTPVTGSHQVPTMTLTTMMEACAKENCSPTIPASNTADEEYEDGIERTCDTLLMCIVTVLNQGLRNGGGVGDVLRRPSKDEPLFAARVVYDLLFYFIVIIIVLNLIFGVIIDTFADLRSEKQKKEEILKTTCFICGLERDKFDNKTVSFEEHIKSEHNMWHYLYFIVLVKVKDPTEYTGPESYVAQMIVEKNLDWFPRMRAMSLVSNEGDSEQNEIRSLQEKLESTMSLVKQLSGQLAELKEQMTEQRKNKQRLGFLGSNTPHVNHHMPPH
Source text: Electrophysiological recording of ICCs is a well established technique used to measure the effects on calcium levels based on external stimuli (83, 115-117). The planar lipid bilayer technique has been used by the principal investigator to determine the function of ICCs in neurons and non-neuronal cells. The inventors isolated type 2 IP3R from nuclei of HepG2 cells using the same techniques described herein. These studies represent the first determination of the biophysical properties of native type 2 IP3R isolated from cells. All previous studies on type 2 IP3R used artificially expressed type 2 IP3R of cells that had been transfected with the respective cDNA (118-119). Single channel activity was examined using the Planar Lipid Bilayer Membrane technique. […] The lack of feedback inhibition by high concentrations of Ca^2+ is again similar to what has been observed in the recombinant type 2 IP3R (118, 121). […] Both the increased sensitivity to IP3 and the lack of Ca2+-induced inactivation distinguishes the type 2 IP3R from the well-characterized type 1 IP3R. By isolating the receptor with its associated proteins from a functional cellular environment, properties influenced by accessory proteins can be readily assessed with single channel electrophysiology. Data obtained from these experiments analyzing the single channel characteristics of ICCs will provide the biophysical information necessary to correlate intracellular signaling data with function in live cells and in vivo, as shown hereinbelow.
Planar lipid bilayer single channel electrophysiology. ER vesicles or artificial liposomes containing ICCs may be incorporated into planar lipid bilayers and channel activity may be recorded electrophysiologically with the planar lipid bilayer being equivalent to the plasma membrane patch of patch clamp electrophysiology. […] Proper insertion of the ICCs may be monitored by appropriate stimulation of channels on the cytosolic side (IP3R: Ca^2+, IP3; RyR: Ca^2+, caffeine, cADPR; pc-2: Ca^2+, activating membrane potential; 77, 83, 115-117, 141). […] Channel insertion and activity may be recorded with Ag/AgCl electrodes contacting the buffer filled compartments via KCl containing agarose bridges. Activity of a single channel protein can be monitored because it passes enough current to be measured electronically using an amplifier. […] Single channel conductance, voltage-dependence, dwell times and dependence on intracellular free Ca^2+ concentrations may be determined using standard methods in the presence of blockers of other ICCs (IP3R: no IP3, heparin; RyR: ryanodine, ruthenium red; pc-2: lack of activating membrane potential; 77, 83). […]

[3] = target: recombinant type 2 IP3R (Homo sapiens, UniProt Q14571); conditions: read-out: EC50-value for IP3; cited from earlier work
[4] = target: type 1 IP3R (Homo sapiens, UniProt Q14643); conditions: read-out: half maximal activation by IP3; cited from earlier work
[5] = test system: HT22 neurons; assay: Neuroprotection from L-glutamate toxicity (oxidative stress); type: cell-based
Description: NAE protects neurons in vitro from oxidative stress and glutamate toxicity. Next, the neuroprotective potential effects of NAEs were determined by culturing an immortalized hippocampal neuron cell line, HT 22, a model system used extensively. […] The mechanism of neurotoxicity is depletion of intracellular glutathione stores by inhibition of the cysteine transport and subsequently of glutathione synthesis.
The following assays may be used to assess neuronal viability and different stages of cell death. Optical assessment._Changes in cell morphology (apoptotic and necrotic morphology) and cell number may be used as an initial assessment of neurotoxicity and neuroprotection (see preliminary results in FIG. 8) using bright field differential interference contrast microscopy (Olympus IX-70, Olympus Corp., Japan; SimplePCI, C-imaging systems, Compix, Inc.).

[6] = target: T2, type 2 RyR (Mus musculus, UniProt E9Q401); assay: Planar lipid bilayer single channel recording of RyR2; type: biochemical
T2 construct: First, type 2 RyR were isolated from mouse; from tissue; host or cells: mouse
Description: NAEs differentially regulate the activity of ICCs. First, type 2 RyR were isolated from mouse. Briefly, single channel activity was examined using the Planar Lipid Bilayer Membrane technique. […] Channel activity was initiated by cytosolic Ca^2+ concentrations of 10 nM and higher.
(§1) Next, the effect of NAE 12:0 on mouse RyRs was determined. NAE 12:0 dose-dependently and isoform-specifically regulated the function of RyRs and represent the first pharmacological tool to differentially manipulate individual intracellular calcium channel isoforms (FIG. 5). […] Measured at sub-maximally activating Ca^2+ concentrations (RyR type I: pCa 6; RyR type II: pCa 6.5) 500 nM NAE 12:0 increased RyR type I activity by 42% whereas the same concentration decreased RyR type II activity by 64% (FIG. 5).
Planar lipid bilayer single channel electrophysiology. ER vesicles or artificial liposomes containing ICCs may be incorporated into planar lipid bilayers and channel activity may be recorded electrophysiologically with the planar lipid bilayer being equivalent to the plasma membrane patch of patch clamp electrophysiology. Lipid bilayer membranes may be formed in a hole in a Teflon partition, which separates two buffer filled compartments (phosphatidylethanolamine and phosphatidylserine, 3:1 w/w, dissolved in decane, 40 mg lipid per ml, Avanti Polar Lipids, Alabaster, Ala.). Vesicles containing pc-2 may be added to one compartment (corresponding to the cytosolic compartment) and fuse with the bilayer leaving the channels contained in the vesicle as the only electrical connection between the two compartments. The buffer on the cytosolic side of the channel is a 250 mM HEPES-Tris solution, pH 7.35 and a 250 mM HEPES, 55 mM Ba(OH)2 (or defined concentration of other current carrier, such as Ca(OH)2 or Mg(OH)2) solution, pH 7.35 constitutes the buffer on the trans side of the bilayer. Proper insertion of the ICCs may be monitored by appropriate stimulation of channels on the cytosolic side (IP3R: Ca^2+, IP3; RyR: Ca^2+, caffeine, cADPR; pc-2: Ca^2+, activating membrane potential; 77, 83, 115-117, 141). Improperly inserted channels that are less than 5% under the described conditions will not be included in the analysis. Channel insertion and activity may be recorded with Ag/AgCl electrodes contacting the buffer filled compartments via KCl containing agarose bridges. Activity of a single channel protein can be monitored because it passes enough current to be measured electronically using an amplifier. Altering the divalent cation species on the luminal side of the channel that carries the current will test ion selectivity. Single channel conductance, voltage-dependence, dwell times and dependence on intracellular free Ca^2+ concentrations may be determined using standard methods in the presence of blockers of other ICCs (IP3R: no IP3, heparin; RyR: ryanodine, ruthenium red; pc-2: lack of activating membrane potential; 77, 83). Modulating reagents may be added to the cytosolic side of the protein using a perfusion system (77, 83).

[7] = target: T3, RyR type I (Mus musculus, UniProt E9PZQ0); assay: Planar lipid bilayer single channel recording of RyR type I; type: biochemical
T3 construct: from tissue; host or cells: mouse
Description: as §1
Planar lipid bilayer single channel electrophysiology. ER vesicles or artificial liposomes containing ICCs may be incorporated into planar lipid bilayers and channel activity may be recorded electrophysiologically with the planar lipid bilayer being equivalent to the plasma membrane patch of patch clamp electrophysiology. […] Proper insertion of the ICCs may be monitored by appropriate stimulation of channels on the cytosolic side (IP3R: Ca^2+, IP3; RyR: Ca^2+, caffeine, cADPR; pc-2: Ca^2+, activating membrane potential; 77, 83, 115-117, 141). […] Channel insertion and activity may be recorded with Ag/AgCl electrodes contacting the buffer filled compartments via KCl containing agarose bridges. Activity of a single channel protein can be monitored because it passes enough current to be measured electronically using an amplifier. […]

[8] = test system: primary cultures of hippocampal neurons; assay: Ca2+ imaging of L-glutamate induced Ca2+ transients (fluo-3); type: cell-based; conditions: 100 μM, 30 min preincubation, 100 μM L-Glutamate stimulus
Description: Both single wavelength (high sensitivity) and ratiometric (quantitative analysis) fluorescent Ca^2+ indicator dyes may be used. Various parameters may be studies, such as substrate adherence, dye concentration, and culture conditions, have been optimized for measuring acutely isolated neurons as well as neuronal cell lines, as will be known to the skilled artisan. NAEs influence intracellular Ca2+ homeostasis. Next, studies were conducted using primary cultures of hippocampal neurons to determine the effects of NAEs on intracellular Ca^2+ signaling. In these studies, the influence of a bath-based application of NAE 16:0 on intracellular Ca^2+ signaling of primary hippocampal neurons was analyzed. Hippocampal neurons like most other CNS neurons express RyR isoform 2. Some neurons also express RyR3 and RyR1 is found predominantly in glial cells.
FIGS. 6A to 6E demonsatrate the effect of NAEs on primary isolated and cultured hippocampal neurons were exposed to 100 μM L-Glutamate. FIG. 6A show the DIC image of a neuron and the fluorescence of the calcium indicator dye fluo-3 in the same cell at resting levels (FIG. 6B) and after L-Glutamate stimulation (FIG. 6C; scale bar: 25 μm). […] When the hippocampal neurons were stimulated with L-glutamate, this triggers an influx of extracellular Ca^2+ and a prolonged release of Ca^2+ from intracellular stores (FIG. 6D). […]

[9] = test system: ovariectomized (OVX) rats; assay: Middle cerebral artery occlusion, cerebral ischemia-reperfusion injury; type: in vivo
[10] = test system: Akt; conditions: primary hippocampal neurons, 100 μM, 60 min, total Akt unchanged
Description: Western Blot Analysis. Cells may be lysed in lysis buffer (50 mM Tris (pH 7.4), 150 mM NaCl, 10% glycerol, 1 mM EGTA, 1 mM Na3VO4, 5 μM ZnCl2, 100 mM NaF, 1% Triton X-100, 10 μg/ml aprotinin, 1 μg/ml leupeptin, and 1 mM PMSF) and snap frozen in liquid nitrogen. Following homogenization, by trituration of the cells through a 22 Ga needle, and centrifugation at 100,000×g for 15 min at 4° C., resulting supernatants (lysates) are normalized for protein content (Lowry Assay, Biorad DC Protein Assay Kit). 25 mg of protein from each sample will then be separated on a 10% polyacrylamide gel (SDS/PAGE) followed by transfer onto PVDF membranes (0.22 mm pore size, Biorad, Hercules, Calif.). The membranes are then blocked overnight with 3% BSA (Fraction V; Sigma) or in Tris-buffered saline containing 0.2% Tween-20 (TBS-T) and probed with the appropriate antibody. […] For Akt phosphorylation, rabbit anti-phosphoAkt (Ser473) or rabbit anti-phosphoAkt(Thr308) (Cell Signaling Technology); for Akt protein assessment, rabbit anti-Akt (New England Biolabs). Binding of the primary antibody to the membrane may be detected using a secondary antibody (either goat anti-rabbit or goat anti-mouse), conjugated to horseradish peroxidase (HRP; 1:40,000, Pierce, Rockford, Ill.) and visualized using enzyme-linked chemiluminescence (ECL; Amersham, Arlington Heights, Ill.). […]

[11] = test system: IP3R; assay: Western blot of phosphothreonine on IP3R in retina tissue in vitro; type: cell-based, mouse; conditions: 100 nM, 60 min, vs vehicle control
Source text: Chemo-luminescence-enhanced Western blotting as a sensitive method to evaluate changes in intracellular signaling. A crucial factor in the determination of signaling proteins mediating neuroprotection is the specificity of reagents used for immunolocalization. As disclosed herein, a number of antibodies identified and characterized (Tables 1 and 2) and the conditions that allow full identification of signaling proteins mediating NAE responses through NAEs in neurons provided. Using the sensitive chemo-luminescence-enhanced Western blotting technique, changes were detected in signaling protein composition. Furthermore, immunodetection methods allow an analysis of the changes in the phosphorylation status of signaling proteins in experiments assessing the neuroprotective functions of NAEs. The high temporal and quantitative sensitivity of the assay system may be especially useful in our in vitro and in vivo model systems of neurotoxicity which will measure small but functionally relevant initial changes associated with neuronal damage. In additional studies, the effects of lipophilic hormones on the phosphorylation status of intracellular calcium channels was determined. […]
The high temporal and quantitative sensitivity of the assay system may be especially useful in our model systems which will produce functionally relevant initial changes associated with neuronal damage.

In the case of `C[C@]12CC[C@@H]3c4ccc(O)cc4CC[C@H]3[C@@H]1CC[C@@H]2O` [17β-estradiol], the protection [1] is listed as over 50%.

For `O=P(O)(O)O[C@@H]1[C@H](O)[C@H](O)[C@@H](OP(=O)(O)O)[C@H](OP(=O)(O)O)[C@H]1O` [IP3, inositol 1,4,5-trisphosphate], the “cytosolic IP3 concentration that initiates channel activity” value [2] is listed as at least 10 nM, the EC50 ([2]; native channel, data not shown, read-out: half maximal activation, dependence on cytosolic IP3 concentration) is listed as 64 nM and the EC50 [3] is listed as 58 nM. The EC50 [4] was 500 nM.

For `CCCCCCCCCCCC(=O)NCCO` [NAE 12:0], the “protection from L-glutamate toxicity” value [5] was “dose-dependently protects”, the “effect of NAE alone on neuronal viability” value ([5]; HT-22 cells, even at high concentrations, no L-glutamate) was “no effect” and the “number of dead cells after L-glutamate insult” value ([5]; in the presence of the NAE) was “significantly reduced”. For the same molecule, the “decrease of RyR type II activity” value ([6]; 500 nM, pCa 6.5, n=3, FIG. 5) was 64%, the “change of single channel conductance and amplitude” value ([6]; RyR 2) was “Neither NAE 12:0 nor NAE 18:2 changed” and the “increase of RyR type I activity” value ([7]; 500 nM, pCa 6, n=3, FIG. 5) was 42%. The “change of single channel conductance and amplitude” value ([7]; RyR 1) was “Neither NAE 12:0 nor NAE 18:2 changed”.

In the case of `CCCCCCCCCCCCCCCC(=O)NCCO` [NAE 16:0], the “effect of NAE alone on neuronal viability” value [5] is reported as “no effect”, the “potency in neuroprotection, comparison” value ([5]; FIG. 10 vs FIG. 9) is reported as “higher potency in neuroprotection than NAE 12:0” and the channel open frequency ([6]; 0.1 μM) is reported as “reduced significantly”. For the same molecule, the channel open probability ([6]; 0.1 μM) was “reduction”, the dwell time ([6]; 0.1 μM) was “reduced significantly” and the “channel activity at higher concentrations” value ([6]; higher, micromolar concentrations, FIG. 4) was “almost complete block”. The “single channel amplitude (not affected)” value ([6]; in presence of NAE 16:0) was 3.9±0.1 pA, the “single channel conductance (not affected)” value ([6]; in presence of NAE 16:0) was 110±8 pS and the RyR2 channel activity ([6]; pCa 6, n=3, FIG. 4) was “dose-dependently decreased”. The “amplitude of Ca2+ transients” value [8] was “significantly decreased”, the “duration of Ca2+ transients” value [8] was “significantly decreased” and the “protection of cerebral cortex and basal ganglia (infarct volume, TTC)” value ([9]; 10 mg/kg sc, 1 hr MCAO, 24 hr reperfusion, N=7/group, P<0.05 vs OVX) was “protected”. For the same molecule, the “protection of CNS tissue from MCA occlusion-induced ischemic damage” value ([9]; acute (sc 6 h prior and immediately before MCAO, 10 mg/kg) and chronic (1 day prior) regimen) was “effectively protected” and the “phosphorylated/active Akt” value [10] was “significant increase”.

In the case of `CC(=O)[C@H]1CC[C@H]2[C@@H]3CCC4=CC(=O)CC[C@]4(C)[C@H]3CC[C@]12C` [progesterone], the “phosphothreonine immunoreactivity on the IP3R” value [11] is reported as “increase”.

In the case of `N.N.N.N.N.N.N.N.N.N.N.N.N.N.[Cl-].[Cl-].[Cl-].[Cl-].[Cl-].[Cl-].[O-2].[O-2].[Ru+3].[Ru+3].[Ru+4]` [ruthenium red, reference compound], the “block of channel activity” value ([6]; ruthenium red 20 μM) is reported as “blocked”.

For calmodulin, the “effect on lack of Ca2+ inhibition of the channel” value ([2]; excess amounts, preliminary experiments) was “did not change this behavior”.

With heparin the “block of channel activity” value ([2]; heparin 50 μg/ml) was “blocked”.

— patent US20060142395A1, “Modulation of intracellular calcium signaling by N-acylethanolamines” (University of North Texas Health Science Center, priority 2003, published 2006)
